In paper PMC3177007 (Cancer gene therapy, 2011):

Assays:
[1] = Particle size by dynamic light scattering; type: physicochemical; settings: DLS; H3K(+H)4b:siRNA 2.2:1 (w/w)
Zeta potential = type: physicochemical; settings: nanoplexes at selected ratios: H3K(+H)4b:siRNA 2.2:1; (RGD-PEG)-H3K(+H)4b/H2K4b/siRNA 3:0.8:1; (RGD-PEG)^4-H3K(+H)4b/H2K4b/siRNA 4:0.8:1
MDA-MB-435 cells = assay: Cellular uptake of Cy3 labeled-siRNA nanoplexes, confocal microscopy; type: cell-based, human; settings: cells incubated 4 h with nanoplexes
siRNA = assay: Gel retardation assay of HK:siRNA nanoplexes; type: binding; settings: H2K4b:siRNA ratio 0.8 to 1 (w:w); data not shown
[2] = H2K4b alone; ref [18]; cited from earlier work

## KHHHKHHHKHHHHKHHHK [H3K(+H)4b]
[1]
  size of the siRNA nanoplex: 149 ± 41 nm
Zeta potential
  zeta potential: 37 mV
MDA-MB-435 cells
  intracellular fluorescence pattern of Cy3 labeled-siRNA: discrete intracellular particles

## KHKHHKHHKHHKHHKHHKHK [H2K4b]
siRNA
  siRNA retained in gel retardation assay: 35%
[2]
  effectiveness as carrier of siRNA in silencing its targets: not an effective carrier
